Assay: gradient 5% acetonitrile 3 min, to 50% in 2 min, to 85% in 15 min, held 3 min, 100 µL/min
Details: column: Zorbax Extend-C18 2.1 x 50 mm; eluents: water / acetonitrile, 0.1% formic acid
Summary of the method: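 Using water and acetonitrile that each contained 0.1% formic acid, mixtures of ~100 pure standards were separated at 100 μL/min on a Zorbax Extend-C18 column (2.1 × 50 mm, 1.8 μm). The HPLC fed a quadrupole time-of-flight mass spectrometer working in positive and negative ionization mode, with dead and dwell volumes of 40 μL and 900 μL. Data were acquired over 3 months. Retention time was read from computationally picked adduct peaks after manual inspection of each.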

SMILES	RP-LC retention time [s]
Cc1cc(C(=O)Nc2sc(C)c(C)c2C#N)on1	786
COc1cccc2cc(C(=O)Nc3ccc4c(c3)C(=O)Nc3ccccc3O4)oc12	950
COc1cc(C(=O)N(Cc2ccc(N(C)C)cc2)C2CCS(=O)(=O)C2)cc(OC)c1OC (stereo not given)	634
COC(=O)c1c(C)c(C(=O)C(C)N(CC(C)C)C(=O)c2ccc(F)cc2)c(C)n1C (stereo not given)	1020
CC(C)Cc1nn(-c2ccccc2)cc1CN1CC(=O)NCC12CCCC2	720
O=C(c1cc(S(=O)(=O)N2CCCC(C(=O)N3CCCCCC3)C2)c[nH]1)N1CCCCCC1 (stereo not given)	824
COc1ccc2c(c1)C1(CCN(C(=O)C(C)(C)C)C1)C(=O)N2C (stereo not given)	764
COc1ccc(S(=O)(=O)N2CCC(OCc3noc(C4CCCO4)n3)CC2)cc1 (stereo not given)	863
Fc1cccc(-c2nc(Cn3ccnc3)no2)c1	577
CCn1c(=O)n(CC)c2cc(NC3=NS(=O)(=O)c4ccccc43)ccc21	702
Cc1cc(S(=O)(=O)Nc2cccnc2)c(Cl)cc1Cl	714
CCOc1ccc2cccc(NC(=O)c3ccccc3C(F)(F)F)c2n1	1200
O=C(NCc1ccncc1)C1CN(S(=O)(=O)c2ccccc2)CC12CCCCC2 (stereo not given)	594
CCc1nccn1Cc1noc(-c2ccccc2Cl)n1	564
CS(=O)(=O)c1ccccc1C(=O)Nc1nc(-c2cc(Cl)sc2Cl)cs1	1030
O=C(Cn1cccc(-c2nc(-c3ccc(F)cc3)no2)c1=O)Nc1cccc(Br)c1	950
CC(=O)n1nc(-c2ccccc2Cl)nc1N	729
O=C1CC(c2noc(-c3cc(F)cc(F)c3)n2)CN1c1ccc(F)c(Cl)c1 (stereo not given)	1110
O=C([C@@H]1C[C@H](F)CN1C(=O)Cc1ccsc1)N1CCCCC1	657
OC1(c2ccccc2)CCN(Cc2ccccc2)CC1	553
CCC(=O)N1c2ccc(S(=O)(=O)N3CCCCC3)cc2CC1C(=O)NC1CCCCC1 (stereo not given)	895
CCCN(CCC)S(=O)(=O)c1cccc(-c2cn3cc(C)ccc3n2)c1	731
CC1CCc2[nH]nc(C(=O)N3CCCCC3)c2C1 (stereo not given)	757
CCCn1cnc2cc(-c3noc(C4CC(=O)N(c5ccccc5)C4)n3)ccc21 (stereo not given)	711
CCc1ccc(-c2noc(Cn3c(=O)n(-c4ccccc4F)c(=O)c4sccc43)n2)cc1	1100

SMILES	RP-LC retention time [s]
COc1ccccc1C(=O)Nc1cccn2nc(C(C)C)nc12	1020
CCCNC(=O)c1cc2sc(C)c(CN3CCCCC3)c2[nH]1	629
N#Cc1cnc(-c2ccc(F)cc2)n(CC(=O)Nc2ccc(C(F)(F)F)cc2)c1=O	1040
COCC(=O)N(C1CCOCC1)C1CCN(C(=O)Cc2ccc(Cl)cc2)CC1	618
O=C(NC1CCCCCC1)C1CCN(Cc2cc3ccccc3n2Cc2ccccc2Cl)CC1	899
CC1(C(=O)NCc2ccc(Br)cc2)Oc2cccnc2NC1=O (stereo not given)	733
Cc1cccc(C)c1NC(=O)CCCSc1nnnn1-c1ccccc1	810
O=C1CCCCC(Cc2ccccc2)(C(=O)Nc2ccc(F)cc2)N1 (stereo not given)	818
COCc1cn(C2CN(C(=O)C3(c4ccccc4)CC3)C2)nn1	688
CCOC(=O)c1cnc2nc(C)ccc2c1Nc1ccc(Cl)cc1F	758
C#CCOCC1CCN(C(=O)c2cc(-c3cccs3)[nH]n2)CC1	734
CCCCN(C)C(=O)C1CCN(c2cncnc2N2CCCCC2)CC1	661
O=C(NCc1ccccc1)Nc1cnc2c(c1)CCC2	557
Cc1cccc(S(=O)(=O)N2Cc3ccccc3CC2C(=O)NCc2ccco2)c1 (stereo not given)	1000
Cc1ccc(CN2CCC(c3nc(-c4cnccn4)n[nH]3)CC2)s1	570
CC(=O)N1CCC(c2noc(-c3ccccn3)n2)C1 (stereo not given)	596
Cc1ccc(Nc2nc(C(=O)NCCc3cnc[nH]3)nc3ccccc23)cc1	590
CCOc1ccc(-c2[nH]ncc2CNS(=O)(=O)Cc2ccccc2Cl)cc1	846
Cc1ccc(CNc2c(-c3ccc(F)c(F)c3)nc3ncccn23)cc1	890
CCn1cc(S(=O)(=O)N2CCC[C@H]2c2nc(-c3ccc(F)cc3)n[nH]2)cn1	714
Cc1noc(Cc2nnc(-c3cccc(F)c3)o2)n1	730
NS(=O)(=O)c1ccc(CCNC(=O)Cc2cc(-c3cc4ccccc4o3)on2)cc1	736
Cc1ccc(OCC(=O)N(Cc2ccc(N(C)C)cc2)Cc2ccco2)cc1	795
Cc1noc(C2(NC(=O)C3CCCCC3)CCCCC2)n1	873

The remaining lines, values ahead:

RP-LC retention time [s]	SMILES
702	O=C(CSc1nc(N2CCCCC2)nc2ccccc12)Nc1ccccc1
700	Cc1cc2c(cc1S(=O)(=O)N1CCCC1C(=O)Nc1ccc3c(c1)OCCO3)OCC(=O)N2 (stereo not given)
1340	Cc1ccc(NC(=O)c2c(O)c3cccnc3n(-c3ccc(F)cc3)c2=O)cc1F
726	Cc1cc(F)ccc1NC(=O)Cn1ccc2sccc2c1=O
917	COc1ccc(OC)c(NC(=O)C2(c3cccs3)CCOCC2)c1
724	COc1ccc(C(=O)NC2CCN(c3cc(-c4cccs4)[nH]n3)C2)c(OC)c1 (stereo not given)
962	CC(C)c1cccc(NC(=O)Cn2cc(-c3nc(-c4cccs4)no3)ccc2=O)c1
636	CC1CN2C=NC(N3CCN(C(=O)Nc4ccc(Cl)cc4F)CC3)=CC2=N1 (stereo not given)
577	Cc1ccc2[nH]c(=O)c(CCC(=O)NCCN3CCOCC3)cc2c1
971	Cc1cc(OCC(=O)Nc2ccccc2C(F)(F)F)nc(N2CCN(c3ccccc3)CC2)n1
1070	Cc1ccc(C)c(N2CCN(C(=O)c3ccc(C)c(NC(=O)C4=CSCCO4)c3)CC2)c1
724	Cc1ccc(CSc2nc(CC(=O)NCc3nnc(C)o3)cs2)cc1
688	COc1ccc(N2CCN(Cc3nc(-c4ccc(N5CCOCC5)nc4)no3)CC2)cc1
715	Cc1nc(-c2cc3ccccc3nc2N2CCN(Cc3ccccc3)CC2)no1
775	O=C(c1ccc(Cl)cc1)N1CCC(N(C(=O)C2CC2)C2CCOCC2)CC1
1110	O=C(Cn1nc2c(SC3CCCCC3)nccn2c1=O)N1CCN(c2ccccc2)CC1
808	Cc1cc(C)cc(NC(=O)N2CCC3(CC2)NC(=O)c2ccccc2N3C)c1
600	Cc1ccccc1-c1cc(N2CCN(C(=O)NCC3CCCO3)CC2)ncn1 (stereo not given)
1140	CCn1c(C(=O)N2CCCC(C(=O)N3CCN(c4cccc(C)c4C)CC3)C2)cc2sccc21 (stereo not given)
1130	O=C(Nc1ccc([N+](=O)[O-])cc1Cl)c1cc(Cl)ccc1O
678	COc1ccc(CNC(=O)N2CC=C(c3cn(C(C)C)c4ncccc34)CC2)cc1

RP-LC retention time [s]	SMILES
828	CCC(=O)N1CCc2cc(N3CC(C(=O)Nc4cc(Cl)ccc4OC)CC3=O)ccc21 (stereo not given)
942	Cc1ccc(C)c(N2CCN(c3ccnc(SCC(=O)NCc4ccc(Cl)cc4)n3)CC2)c1
1100	Cc1cccc(C)c1Nc1c(-c2ccc(N3CCOCC3)cc2)nc2cnc(Br)cn12
604	Cc1ccnc(N2CCCC(C(=O)NCC3CCN(Cc4cccc(Cl)c4)CC3)C2)n1 (stereo not given)
709	O=C(CC1CCN(C(=O)Nc2ccccc2F)CC1)N1CCCCC1
644	Cn1nc2c(c1NC(=O)Cc1ccc3c(c1)OCO3)CCC2
891	COc1ccc(C2CC(=O)N(c3cc(C)cc(C)c3)C(=O)C2)cc1OC
855	Cc1ccc(NC(=O)CN2C(=O)CCCc3cc(S(=O)(=O)N4CCCC4)ccc32)cc1
1060	Cc1noc(C)c1-c1ccc(S(=O)(=O)Nc2ccc(C(C)C)cc2)cc1
858	CCN1c2ccc(C)cc2C(=O)NC12CCN(C(=O)c1ccc(Cl)cc1)CC2
601	CNC(=O)c1cc(N2CCN(C)CC2)nc2c(C)cccc12
624	O=C(CCc1csc(NC(=O)c2ccc(F)cc2)n1)NCCn1ncccc1=O
806	COc1ccc(C)cc1NC(=O)N1CCC2(CC1)NC(=O)c1ccc(Cl)cc1N2
704	O=C(Cc1cccs1)NC1CCN(C(=O)c2cc(-c3cccs3)[nH]n2)CC1
802	Cc1ccc(-c2nc3ncccn3c2Nc2ccccc2C)cc1
842	CCOC(=O)C1CCN(c2cc3c(cc2NC(=O)NCc2ccc(C)cc2)n(C)c(=O)n3C)CC1
598	COc1cccc(CNC(=O)Cn2ncc3c(N4CCN(c5ccccn5)CC4)ncnc32)c1
857	Cn1c(=O)c(N2CCC(NC(=O)NCCc3ccccc3)CC2)nc2ccccc21
835	O=C(Nc1ccc(C(=O)N2CCC(C(=O)NC3CCCCC3)CC2)cc1)c1ccc(Cl)cc1
597	CCc1nnc2nc(N3CCN(C(=O)c4ccccc4)CC3)cc(C)n12

From the METLIN SMRT retention time set (Domingo-Almenara et al. 2019)
